Several values for one entry are separate records, joined by “and”; a condition that tells them apart may be missing. Equal values may be shown once. Inconclusive results are not listed.
Tested on: nude mice, A549 intrarenal xenograft, tumor weight change
Assay: NCI In Vivo Anticancer Drug Screen. Data for tumor model A549 Human Adenocarcinoma of Lung with characteristics of Type II Alveolar Epithelial cells (intrarenal inoculation) in NU/NU BALB/C (nude) mice
Conditions: endpoint: mean tumor weight change, schedule: Q04DX003 (ip), higher = larger tumour
Procedure, shortened: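 Mice bearing transplantable tumors were treated and survival or tumor size recorded. Values are given as treated-group measurement divided by vehicle-control measurement (T/C).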

[1] = dose: 300.0 mg/kg/injection, vehicle: DMSO
[2] = dose: 12.5 mg/kg/injection, vehicle: saline with Tween-80
[3] = dose: 25.0 mg/kg/injection, vehicle: saline with Tween-80
[4] = dose: 100.0 mg/kg/injection, vehicle: saline with Tween-80
[5] = dose: 150.0 mg/kg/injection, vehicle: saline
[6] = dose: 1.0 mg/kg/injection, vehicle: saline with Tween-80
[7] = dose: 2.0 mg/kg/injection, vehicle: saline with Tween-80

## Nc1ccn([C@@H](C=O)C[C@@H](C=O)CO)c(=O)n1
dose: 37.5 mg/kg/injection, vehicle: saline with Tween-80
  T/C: 42 % of control
dose: 75.0 mg/kg/injection, vehicle: saline with Tween-80
  T/C: 245 % of control
dose: 150.0 mg/kg/injection, vehicle: saline with Tween-80
  T/C: 66 % of control
dose: 300.0 mg/kg/injection, vehicle: saline with Tween-80
  T/C: 216 % of control and 82 % of control
dose: 600.0 mg/kg/injection, vehicle: saline with Tween-80
  T/C: 48 % of control
dose: 1200.0 mg/kg/injection, vehicle: saline with Tween-80
  T/C: 26 % of control

## C=Cc1cc(OC)c2c(c1)c(=O)oc1c2cc(OC)c2c(O)ccc(C3OC(C)C(O)C(C)(O)C3O)c21 (stereo not drawn)
[1]
  T/C: 32 % of control

## CC(=O)C[n+]1ccccc1Sc1ccc(Cl)cc1
[2]
  T/C: 107 % of control
[3]
  T/C: 80 % of control
dose: 50.0 mg/kg/injection, vehicle: saline with Tween-80
  T/C: 93 % of control
[4]
  T/C: 79 % of control

## COc1cc(C2=NCCc3cc4c(cc32)OCO4)cc(OC)c1OC
dose: 37.5 mg/kg/injection, vehicle: saline + alcohol
  T/C: 73 % of control
dose: 75.0 mg/kg/injection, vehicle: saline + alcohol
  T/C: 49 % of control
dose: 150.0 mg/kg/injection, vehicle: saline + alcohol
  T/C: 31 % of control

## NNC(=O)c1ccncc1
dose: 37.5 mg/kg/injection, vehicle: saline
  T/C: 99 % of control
dose: 75.0 mg/kg/injection, vehicle: saline
  T/C: 104 % of control
[5]
  T/C: 69 % of control

## CC[C@@]1(O)C(=O)OCc2c1cc1n(c2=O)Cc2cc3c(N)cccc3nc2-1
[6]
  T/C: 3 % of control
dose: 1.44 mg/kg/injection, vehicle: saline with Tween-80
  T/C: 1 % of control
[7]
  T/C: -8 % of control
dose: 2.4 mg/kg/injection, vehicle: saline with Tween-80
  T/C: -64 % of control
dose: 4.0 mg/kg/injection, vehicle: saline with Tween-80
  T/C: -68 % of control

## COc1ccc2oc3c(ccc[n+]3C)c(=O)c2c1
[4]
  T/C: 57 % of control
dose: 200.0 mg/kg/injection, vehicle: saline with Tween-80
  T/C: 38 % of control
dose: 400.0 mg/kg/injection, vehicle: saline with Tween-80
  T/C: 32 % of control

## C/C(=N\NC(=S)N1CC2CCC(CC2)C1)c1cccc(C)n1
[2]
  T/C: 114 % of control
[3]
  T/C: 81 % of control

## CC(CNC(=O)C12CC3CC(CC(C3)C1)C2)NC(=O)C12CC3CC(CC(C3)C1)C2 (stereo not drawn)
[1]
  T/C: 106 % of control

## C=C1c2cccc(O)c2C(O)=C2C(=O)[C@]3(O)C(O)=C(C(N)=O)C(=O)[C@@H](N(C)C)[C@@H]3[C@@H](O)[C@H]12
dose: 75.0 mg/kg/injection, vehicle: Klucel (hydroxypropylcellulose) (HPC)
  T/C: 96 % of control

## CCCCNc1ccc2nnc(C)n2n1
dose: 75.0 mg/kg/injection, vehicle: DMSO
  T/C: 75 % of control
dose: 150.0 mg/kg/injection, vehicle: DMSO
  T/C: 19 % of control
[1]
  T/C: 65 % of control

## CC1(C)Nc2cc3c(cc2-n2cccc21)oc1ccccc13
[5]
  T/C: 77 % of control
dose: 300.0 mg/kg/injection, vehicle: saline
  T/C: 98 % of control
dose: 600.0 mg/kg/injection, vehicle: saline
  T/C: 66 % of control
dose: 1200.0 mg/kg/injection, vehicle: saline
  T/C: 57 % of control

## Cc1cc(O)c2c(c1O)C(=O)C13C(=C2O)C(=O)C2C(O)C1C1C(O)C3C(=O)C3=C(O)c4c(O)cc(C)c(O)c4C(=O)C321 (stereo not drawn)
[6]
  T/C: 172 % of control
[7]
  T/C: 112 % of control
